Common to all, as to type: biochemical
Assay [1] has as its target MAGL (Mus musculus (Mouse), UniProt O35678). Put plainly: In vitro competitive activity-based protein profiling, mouse proteomes (brain membrane fraction or cell lysates). Conditions: mouse proteome, read-out: MAGL % inh. 1 μM (mouse). The method, boiled down:
(§1)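 Activity of MAGL and FAAH was quantified from fluorescent gel band intensities. Beforehand, inhibitors at several concentrations competed against subsequent probe labelling (FP-Rh, JW912 or HT-01) in species-matched proteomes, each step 30 min at 37° C.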

Assay [2] deals with FAAH (Mus musculus (Mouse), UniProt O08914). Described as above. Conditions: mouse proteome, read-out: FAAH % inh. 1 μM (mouse). In outline: as §1
Assay [3] deals with MAGL (Homo sapiens (Human), UniProt Q99685). The experiment in a line: In vitro competitive activity-based protein profiling, human proteomes (prefrontal cortex or PC3 cell membrane fractions). Particulars: human proteome; for inhibition at 1 µM: read-out: MAGL % inh. 1 μM (human); for inhibition at 10 µM: read-out: MAGL % inh. (human) @ 10 μM. In outline: as §1
Assay [4] concerns the target FAAH (Homo sapiens (Human), UniProt O00519). The assay is described as above. Particulars: human proteome; for inhibition at 1 µM: read-out: FAAH % inh. 1 μM (human). The method, boiled down:
as §1

This is an account of results in patent publication US11149037B2, “Pyrazole MAGL inhibitors” (H. Lundbeck A/S, priority 2017, dated 2021).

SMILES strings stand for the structures.

Sequence of MAGL (Homo sapiens (Human), UniProt Q99685) (Q99685 whole entry): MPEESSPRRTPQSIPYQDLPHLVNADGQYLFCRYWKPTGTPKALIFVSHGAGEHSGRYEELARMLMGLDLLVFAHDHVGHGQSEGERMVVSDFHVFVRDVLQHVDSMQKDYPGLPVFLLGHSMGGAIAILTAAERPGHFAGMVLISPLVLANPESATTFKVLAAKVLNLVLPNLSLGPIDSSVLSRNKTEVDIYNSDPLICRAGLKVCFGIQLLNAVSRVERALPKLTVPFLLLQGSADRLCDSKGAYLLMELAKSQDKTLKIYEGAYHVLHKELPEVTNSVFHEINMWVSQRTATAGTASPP
Sequence of FAAH (Homo sapiens (Human), UniProt O00519) (O00519 whole entry): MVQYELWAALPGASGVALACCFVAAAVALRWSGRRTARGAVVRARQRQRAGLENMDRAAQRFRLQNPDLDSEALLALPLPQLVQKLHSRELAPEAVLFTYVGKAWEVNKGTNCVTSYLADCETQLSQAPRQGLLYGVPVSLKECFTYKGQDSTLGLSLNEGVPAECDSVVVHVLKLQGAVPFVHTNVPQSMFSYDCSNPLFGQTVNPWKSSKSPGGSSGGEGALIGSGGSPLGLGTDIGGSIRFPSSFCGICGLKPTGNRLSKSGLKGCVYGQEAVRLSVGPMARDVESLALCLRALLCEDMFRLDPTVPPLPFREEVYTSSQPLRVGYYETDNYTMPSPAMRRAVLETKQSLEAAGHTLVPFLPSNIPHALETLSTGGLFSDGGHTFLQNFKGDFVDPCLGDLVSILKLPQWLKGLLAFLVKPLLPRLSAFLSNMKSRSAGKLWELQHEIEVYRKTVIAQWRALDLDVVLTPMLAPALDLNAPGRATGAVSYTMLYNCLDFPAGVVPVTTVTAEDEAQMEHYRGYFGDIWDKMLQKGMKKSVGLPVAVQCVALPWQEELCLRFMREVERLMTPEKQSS
Sequence of MAGL (Mus musculus (Mouse), UniProt O35678) (O35678 whole entry): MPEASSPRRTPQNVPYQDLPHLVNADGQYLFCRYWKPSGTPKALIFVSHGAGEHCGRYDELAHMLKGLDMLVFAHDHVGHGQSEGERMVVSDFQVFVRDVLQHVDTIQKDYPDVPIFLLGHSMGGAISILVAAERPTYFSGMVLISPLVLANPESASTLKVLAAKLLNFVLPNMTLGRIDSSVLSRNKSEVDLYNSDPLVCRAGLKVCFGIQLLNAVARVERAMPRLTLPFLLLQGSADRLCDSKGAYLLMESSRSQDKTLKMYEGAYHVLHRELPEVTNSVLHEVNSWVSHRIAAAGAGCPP
Sequence of FAAH (Mus musculus (Mouse), UniProt O08914) (O08914 whole entry): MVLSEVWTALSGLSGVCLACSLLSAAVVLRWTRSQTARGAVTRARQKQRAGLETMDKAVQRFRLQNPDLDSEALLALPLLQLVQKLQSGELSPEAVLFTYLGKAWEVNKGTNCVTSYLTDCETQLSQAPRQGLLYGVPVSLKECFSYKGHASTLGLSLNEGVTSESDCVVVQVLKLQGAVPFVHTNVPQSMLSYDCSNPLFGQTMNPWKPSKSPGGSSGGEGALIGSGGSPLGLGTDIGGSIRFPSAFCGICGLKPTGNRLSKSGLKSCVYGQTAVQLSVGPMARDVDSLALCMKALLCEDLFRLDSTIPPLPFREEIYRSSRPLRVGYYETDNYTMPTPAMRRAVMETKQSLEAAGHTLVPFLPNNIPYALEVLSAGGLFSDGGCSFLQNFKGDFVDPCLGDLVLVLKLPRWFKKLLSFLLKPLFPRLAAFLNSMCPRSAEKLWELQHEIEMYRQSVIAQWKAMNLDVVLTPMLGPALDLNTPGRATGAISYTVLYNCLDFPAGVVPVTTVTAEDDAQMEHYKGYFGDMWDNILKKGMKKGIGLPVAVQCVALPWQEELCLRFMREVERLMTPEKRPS

Regarding `CS(=O)(=O)Nc1ccn(C(=O)N2CCN(Cc3ccc(Cl)c(N4CC5(CCOCC5)C4)c3)CC2)n1` [Example 8, N-(1-(4-(4-chloro-3-(7-oxa-2-azaspiro[3.5]nonan-2-yl)benzyl)piperazine-1-carbonyl)-1H-pyrazol-3-yl)methanesulfonamide], the inhibition at 1 µM at MAGL [1] is greater than 75%; at FAAH [2], 0 to 25%; on MAGL [3], greater than 75%; on FAAH [4] it was 0 to 25%.

Turning to `CS(=O)(=O)Nc1ccn(C(=O)N2CCN(Cc3ccc(Cl)c(N4CC5CN(C(N)=O)CC5C4)c3)CC2)n1` (centres unmarked) [Example 9, 5-(2-Chloro-5-((4-(3-(methylsulfonamido)-1H-pyrazole-1-carbonyl)piperazin-1-yl)methyl)phenyl)hexahydropyrrolo[3,4-c]pyrrole-2(1H)-carboxamide], the inhibition at 1 µM on MAGL [1] is greater than 75%; at FAAH [2], 0 to 25%; at MAGL [3] it was greater than 75%; at FAAH [4], 0 to 25%.

As to `CS(=O)(=O)Nc1ccn(C(=O)N2CCN(Cc3ccc(C(N)=O)c(C(F)(F)F)c3)CC2)n1` [Example 10, 4-((4-(3-(methylsulfonamido)-1H-pyrazole-1-carbonyl)piperazin-1-yl)methyl)-2-(trifluoromethyl)benzamide], the inhibition at 1 µM at MAGL [1], at FAAH [2] and at FAAH [4] was 0 to 25% in each case. Besides, the inhibition at 10 µM on MAGL [3] lay within 50 to 75%.

As a reminder, the IC50 is the midpoint of a concentration-inhibition curve. Low readings indicate greater potency in that assay, high ones weaker potency in that assay. With `CC(=O)Nc1ccn(C(=O)N2CCC3(CCCN3Cc3cc4cc(Cl)cc(Cl)c4[nH]3)CC2)n1` [Example 13, N-(1-(1-((5,7-dichloro-1H-indol-2-yl)methyl)-1,8-diazaspiro[4.5]decane-8-carbonyl)-1H-pyrazol-3-yl)acetamide], the inhibition at 1 µM is greater than 75% on MAGL [1] and 25 to 50% on FAAH [2]. In addition, the IC50 is less than 0.1 µM at MAGL [3] and 1 to 10 µM at FAAH [4].

As to `CS(=O)(=O)Nc1ccn(C(=O)N2CCC(Oc3ccc(C(F)(F)F)cc3-c3nccs3)CC2)n1` [Example 15, N-(1-(4-(2-(thiazol-2-yl)-4-(trifluoromethyl)phenoxy)piperidine-1-carbonyl)-1H-pyrazol-3-yl)methanesulfonamide], the inhibition at 1 µM at MAGL [1] was greater than 75%; on FAAH [2], 25 to 50%; on MAGL [3] it was greater than 75%; on FAAH [4], 0 to 25%.

Take `CC(=O)Nc1ccn(C(=O)N2CC3CN(Cc4cc(Cl)cc(C(C)(C)O)c4)CC3C2)n1` (centres unmarked) [Example 16, N-(1-(5-(3-chloro-5-(2-hydroxypropan-2-yl)benzyl)octahydropyrrolo[3,4-c]pyrrole-2-carbonyl)-1H-pyrazol-3-yl)acetamide]: the inhibition at 1 µM is greater than 75% on MAGL [1], 25 to 50% at FAAH [2], greater than 75% at MAGL [3] and 25 to 50% on FAAH [4].

For the molecule `CC(=O)Nc1ccn(C(=O)N2CCN(Cc3cc(Cl)cc(Oc4ccc(Cl)cc4)c3)CC2)n1` [Example 17, N-(1-(4-(3-chloro-5-(4-chlorophenoxy)benzyl)piperazine-1-carbonyl)-1H-pyrazol-3-yl)acetamide], the inhibition at 1 µM on MAGL [1], at FAAH [2], on MAGL [3] and on FAAH [4] was greater than 75% throughout.

With `CC(=O)Nc1ccn(C(=O)N2CC3CN(Cc4cccc(Oc5ccccc5Cl)c4)CC3C2)n1` (centres unmarked) [Example 18, N-(1-(5-(3-(2-chlorophenoxy)benzyl)octahydropyrrolo[3,4-c]pyrrole-2-carbonyl)-1H-pyrazol-3-yl)acetamide], the inhibition at 1 µM on MAGL [1], on FAAH [2], on MAGL [3] and at FAAH [4] was greater than 75% throughout. Moreover, the IC50 at MAGL [3] was less than 0.1 µM; on FAAH [4] it was 0.1 to 1 µM.

Turning to `CN(c1ccc(C(F)(F)F)cc1N1CCCC1)C1CCN(C(=O)n2ccc(NS(C)(=O)=O)n2)CC1` [Example 19, N-(1-(4-(methyl(2-(pyrrolidin-1-yl)-4-(trifluoromethyl)phenyl)amino)piperidine-1-carbonyl)-1H-pyrazol-3-yl)methanesulfonamide], the inhibition at 1 µM at MAGL [1] was greater than 75%; on FAAH [2], 0 to 25%; on MAGL [3], greater than 75%; at FAAH [4], 0 to 25%.

`CC(=O)Nc1ccn(C(=O)N2CCC3(CCCN3C(=O)c3ccc(Cl)c(C4CC4)c3)CC2)n1` [Example 20, N-(1-(1-(4-chloro-3-cyclopropylbenzoyl)-1,8-diazaspiro[4.5]decane-8-carbonyl)-1H-pyrazol-3-yl)acetamide]: the inhibition at 1 µM at MAGL [1] was greater than 75%; at FAAH [2], greater than 75%; at MAGL [3], greater than 75%; at FAAH [4] it was 0 to 25%. Further, the IC50 is less than 0.1 µM on MAGL [3] and 1 to 10 µM on FAAH [4].

As to `CS(=O)(=O)Nc1ccn(C(=O)N2CCC(Oc3ccc(Cl)c(C4CCCC4)c3)CC2)n1` [Example 21, N-(1-(4-(4-chloro-3-cyclopentylphenoxy)piperidine-1-carbonyl)-1H-pyrazol-3-yl)methanesulfonamide], the inhibition at 1 µM at MAGL [1] is greater than 75%; on FAAH [2], 0 to 25%; on MAGL [3], greater than 75%; at FAAH [4] it was 0 to 25%.

For `CC(=O)Nc1ccn(C(=O)N2CCC3(CCN(Cc4ccc(N5CCCC5)cc4C(F)(F)F)C3)CC2)n1` [Example 23, N-(1-(2-(4-(pyrrolidin-1-yl)-2-(trifluoromethyl)benzyl)-2,8-diazaspiro[4.5]decane-8-carbonyl)-1H-pyrazol-3-yl)acetamide], the inhibition at 1 µM on MAGL [1], on FAAH [2], on MAGL [3] and at FAAH [4] was greater than 75% in each case. Moreover, the IC50 is less than 0.1 µM at MAGL [3] and 0.1 to 1 µM at FAAH [4].

With `CC(=O)Nc1ccn(C(=O)N2CC3CN(Cc4ccc(Cl)c(C5(O)CCCC5)c4)CC3C2)n1` (centres unmarked) [Example 24, N-(1-(5-(4-Chloro-3-(1-hydroxycyclopentyl)benzyl)octahydropyrrolo[3,4-c]pyrrole-2-carbonyl)-1H-pyrazol-3-yl)acetamide], the inhibition at 1 µM at MAGL [1] is greater than 75%; on FAAH [2], 0 to 25%; at MAGL [3], greater than 75%; at FAAH [4], 0 to 25%.

For `CC(=O)Nc1ccn(C(=O)N2CCC3(CCN(Cc4cc(C(F)(F)F)cc(C5(C(=O)O)CCCC5)c4)C3)CC2)n1` [Example 25, 1-(3-((8-(3-Acetamido-1H-pyrazole-1-carbonyl)-2,8-diazaspiro[4.5]decan-2-yl)methyl)-5-(trifluoromethyl)phenyl)cyclopentane-1-carboxylic acid], the inhibition at 1 µM on MAGL [1] is greater than 75%; at FAAH [2] it was 0 to 25%; on MAGL [3], greater than 75%; at FAAH [4] it was 0 to 25%. The IC50 is less than 0.1 µM at MAGL [3] and 1 to 10 µM at FAAH [4].

Take `CN(Cc1ccc(Cl)c(N2CC3COCC3C2)c1)C1(C)CCN(C(=O)n2ccc(NS(C)(=O)=O)n2)CC1` (centres unmarked) [Example 26, N-(1-(4-((4-Chloro-3-(tetrahydro-1H-furo[3,4-c]pyrrol-5(3H)-yl)benzyl)(methyl)amino)-4-methylpiperidine-1-carbonyl)-1H-pyrazol-3-yl)methanesulfonamide]: the inhibition at 1 µM at MAGL [1] is 0 to 25%; at FAAH [2], 0 to 25%; at MAGL [3], greater than 75%; at FAAH [4], 0 to 25%.

`CS(=O)(=O)Nc1ccn(C(=O)N2C[C@H]3C[C@H](OCc4cccc(C(F)(F)F)c4)C[C@H]3C2)n1` [Example 28, N-(1-((3aR,5s,6aS)-5-((3-(trifluoromethyl)benzyl)oxy)octahydrocyclopenta[c]pyrrole-2-carbonyl)-1H-pyrazol-3-yl)methanesulfonamide]: the inhibition at 1 µM on MAGL [1], on FAAH [2], on MAGL [3] and on FAAH [4] was greater than 75% throughout.

With `CC1(N(CC(=O)O)Cc2ccc(C(F)(F)F)cc2N2CCCC2)CCN(C(=O)n2ccc(NS(C)(=O)=O)n2)CC1` [Example 29, N-(4-methyl-1-(3-(methylsulfonamido)-1H-pyrazole-1-carbonyl)piperidin-4-yl)-N-(2-(pyrrolidin-1-yl)-4-(trifluoromethyl)benzyl)glycine], the inhibition at 1 µM at MAGL [1], on FAAH [2] and at FAAH [4] was 0 to 25% each time. Besides, the inhibition at 10 µM at MAGL [3] is 50 to 75%.

On to `C[C@H]1CN(C(=O)n2ccc(NS(C)(=O)=O)n2)CCN1Cc1cnc(Cl)c(N2CCC(F)CC2)c1` [Example 31, (S)—N-(1-(4-((6-chloro-5-(4-fluoropiperidin-1-yl)pyridin-3-yl)methyl)-3-methylpiperazine-1-carbonyl)-1H-pyrazol-3-yl)methanesulfonamide], for which the inhibition at 1 µM at MAGL [1] is greater than 75%; at FAAH [2], 0 to 25%; on MAGL [3] it was greater than 75%; on FAAH [4], 0 to 25%.

For the molecule `CC(C)(O)COc1cccc(CN2CCN(C(=O)n3ccc(NS(C)(=O)=O)n3)CC2)c1Cl` [Example 34, N-(1-(4-(2-Chloro-3-(2-hydroxy-2-methylpropoxy)benzyl)piperazine-1-carbonyl)-1H-pyrazol-3-yl)methanesulfonamide], the inhibition at 1 µM at MAGL [1], on FAAH [2], at MAGL [3] and at FAAH [4] was greater than 75% in each case. In addition, the IC50 on MAGL [3] is less than 0.1 µM; on FAAH [4] it was 0.1 to 1 µM.
